Measurements taken from patent US20190284136A1, “INDOLINE DERIVATIVES” (ViiV HEALTHCARE UK LIMITED, priority 2016, published 2019).

System: HIV
Assay: Table 1 IC50 of the examples (assay method not given; patent concerns inhibiting HIV replication)
Type: cell-based
Details: Human immunodeficiency virus 1

SMILES | IC50
Cc1ccc(-c2c3c(cc(C)c2[C@H](OC(C)(C)C)C(=O)O)N(C(=O)CC2CCCCC2)CC3)cc1 [Example 25, (S)-2-(tert-Butoxy)-2-(1-(2-cyclohexylacetyl)-6-methyl-4-(p-tolyl)indolin-5-yl)acetic acid] | 43 nM
Cc1ccc(-c2c3c(cc(C)c2[C@H](OC(C)(C)C)C(=O)O)N(C(=O)c2nc(C)sc2C)CC3)cc1 [Example 26, (S)-2-(tert-Butoxy)-2-(1-(2,5-dimethylthiazole-4-carbonyl)-6-methyl-4-(p-tolyl)indolin-5-yl)acetic acid] | 123 nM
COc1c(F)cccc1C(=O)N1CCc2c1cc(C)c([C@H](OC(C)(C)C)C(=O)O)c2-c1ccc(C)cc1 [Example 27, (S)-2-(tert-Butoxy)-2-(1-(3-fluoro-2-methoxybenzoyl)-6-methyl-4-(p-tolyl)indolin-5-yl)acetic acid] | 7 nM
Cc1ccc(-c2c3c(cc(C)c2[C@H](OC(C)(C)C)C(=O)O)N(S(=O)(=O)C2CCCCC2)CC3)cc1 [Example 28, (S)-2-(tert-Butoxy)-2-(1-(cyclohexylsulfonyl)-6-methyl-4-(p-tolyl)indolin-5-yl)acetic acid] | 11400 nM
Cc1ccc(-c2c3c(cc(C)c2[C@H](OC(C)(C)C)C(=O)O)N(C(=O)c2cccc(F)c2)CC3)cc1 [Example 29, (S)-2-(tert-Butoxy)-2-(1-(3-fluorobenzoyl)-6-methyl-4-(p-tolyl)indolin-5-yl)acetic acid] | 17 nM
Cc1ccc(-c2c3c(cc(C)c2[C@H](OC(C)(C)C)C(=O)O)N(C(=O)c2cccc(F)c2C)CC3)cc1 [Example 30, (S)-2-(tert-Butoxy)-2-(1-(3-fluoro-2-methylbenzov)-6-methyl-4-(p-tolyl)indolin-5-yl)acetic acid] | 8 nM
Cc1ccc(-c2c3c(cc(C)c2[C@H](OC(C)(C)C)C(=O)O)N(C(=O)c2ccc(C)c(F)c2)CC3)cc1 [Example 31, (S)-2-(tert-Butoxy)-2-(1-(3-fluoro-4-methylbenzov)-6-methyl-4-(p-tolyl)indolin-5-yl)acetic acid] | 12 nM
Cc1ccc(-c2c3c(cc(C)c2[C@H](OC(C)(C)C)C(=O)O)N(C(=O)c2cc(C)cc(F)c2)CC3)cc1 [Example 32, (S)-2-(tert-Butoxy)-2-(1-(3-fluoro-5-methylbenzov)-6-methyl-4-(p-tolyl)indolin-5-yl)acetic acid] | 11 nM
Cc1ccc(-c2c3c(cc(C)c2[C@H](OC(C)(C)C)C(=O)O)N(C(=O)c2cc(F)ccc2C)CC3)cc1 [Example 33] | 13 nM
Cc1ccc(-c2c3c(cc(C)c2[C@H](OC(C)(C)C)C(=O)O)N(C(=O)Cc2ccc(F)c(F)c2)CC3)cc1 [Example 34, (S)-2-(tert-Butoxy)-2-(1-(2-(3,4-difluorophenyl)acetyl)-6-methyl-4-(p-tolyl)indolin-5-yl)acetic acid] | 69 nM
Cc1ccc(-c2c3c(cc(C)c2[C@H](OC(C)(C)C)C(=O)O)N(S(=O)(=O)c2ccc(F)c(F)c2)CC3)cc1 [Example 35, (S)-2-(tert-Butoxy)-2-(1-((3,4-difluorophenyl)sulfonyl)-6-methyl-4-(p-tolyl)indolin-5-yl)acetic acid] | 9800 nM
Cc1ccc(-c2c3c(cc(C)c2[C@H](OC(C)(C)C)C(=O)O)N(S(=O)(=O)N2CCCCC2)CC3)cc1 [Example 36, (S)-2-(tert-Butoxy)-2-(6-methyl-1-(piperidin-1-ylsulfonyl)-4-(p-tolyl)indolin-5-yl)acetic acid] | 65 nM
Cc1ccc(-c2c3c(cc(C)c2[C@H](OC(C)(C)C)C(=O)O)N(C(=O)NC2CCCCC2)CC3)cc1 [Example 37, (S)-2-(tert-Butoxy)-2-(1-(cyclohexylcarbamoyl)-6-methyl-4-(p-tolyl)indolin-5-yl)acetic acid] | 80 nM
Cc1ccc(-c2c3c(cc(C)c2[C@H](OC(C)(C)C)C(=O)O)N(C(=O)c2ccccn2)CC3)cc1 [Example 38, (S)-2-(tert-Butoxy)-2-(6-methyl-1-picolinoyl-4-(p-tolyl)indolin-5-yl)acetic acid] | 18 nM
Cc1ccc(-c2c3c(cc(C)c2[C@H](OC(C)(C)C)C(=O)O)N(C(=O)c2cccnc2)CC3)cc1 [Example 39, (S)-2-(tert-Butoxy)-2-(6-methyl-1-nicotinoyl-4-(p-tolyl)indolin-5-yl)acetic acid] | 27 nM
Cc1ccc(-c2c3c(cc(C)c2[C@H](OC(C)(C)C)C(=O)O)N(C(=O)c2ccncc2)CC3)cc1 [Example 40, (S)-2-(tert-Butoxy)-2-(1-isonicotinoyl-6-methyl-4-(p-tolyl)indolin-5-yl)acetic acid] | 283 nM
Cc1ccc(-c2c3c(cc(C)c2[C@H](OC(C)(C)C)C(=O)O)N(C(=O)C2CCCCC2)CC3)cc1 [Example 41, (S)-2-(tert-Butoxy)-2-(1-(cyclohexanecarbonyl)-6-methyl-4-(p-tolyl)indolin-5-yl)acetic acid] | 17 nM

SMILES | IC50
Cc1ccc(-c2c3c(cc(C)c2[C@H](OC(C)(C)C)C(=O)O)N(C(=O)c2ccc(F)c(F)c2)CC3)cc1 [Example 42, (S)-2-(tert-Butoxy)-2-(1-(3,4-difluorobenzoyl)-6-methyl-4-(p-tolyl)indolin-5-yl)acetic acid] | 5 nM
Cc1ccc(-c2c3c(cc(C)c2[C@H](OC(C)(C)C)C(=O)O)N(C(=O)c2cccc(F)c2F)CC3)cc1 [Example 43, (S)-2-(tert-Butoxy)-2-(1-(2,3-difluorobenzoyl)-6-methyl-4-(p-tolyl)indolin-5-yl)acetic acid] | 10 nM
Cc1ccc(-c2c3c(cc(C)c2[C@H](OC(C)(C)C)C(=O)O)N(C(=O)c2ccc(F)cc2C)CC3)cc1 [Example 44, (S)-2-(tert-Butoxy)-2-(1-(4-fluoro-2-methylbenzoyl)-6-methyl-4-(p-tolyl)indolin-5-yl)acetic acid] | 6 nM
COc1cc(C(=O)N2CCc3c2cc(C)c([C@H](OC(C)(C)C)C(=O)O)c3-c2cc(F)c3c(c2C)CCCO3)ccc1C [Example 71, (S)-2-(tert-Butoxy)-2-((R)-4-(8-fluoro-5-methylchroman-6-yl)-1-(3-methoxy-4-methylbenzoyl)-6-methylindolin-5-yl)acetic acid] | 4 nM
Cc1cc2c(c(-c3cc(F)c4c(c3C)CCCO4)c1[C@H](OC(C)(C)C)C(=O)O)CCN2C(=O)C1CCCc2ccccc21 (stereo partly drawn) [Example 105, (2S)-2-(tert-Butoxy)-2-((4R)-4-(8-fluoro-5-methylchroman-6-yl)-6-methyl-1-(1,2,3,4-tetrahydronaphthalene-1-carbonyl)indolin-5-yl)acetic acid] | 21 nM
Cc1cc2c(c(-c3cc(F)c4c(c3C)CCCO4)c1[C@H](OC(C)(C)C)C(=O)O)CCN2C(=O)C1CCOC1 (stereo partly drawn) [Example 134, (2S)-2-(tert-Butoxy)-2-((4R)-4-(8-fluoro-5-methylchroman-6-yl)-6-methyl-1-(tetrahydrofuran-3-carbonyl)indolin-5-yl)acetic acid] | 453 nM
Cc1cc2c(c(-c3cc(F)c4c(c3C)CCCO4)c1[C@H](OC(C)(C)C)C(=O)O)CCN2C(=O)c1cc(F)cc(C(F)(F)F)c1 [Example 143, (S)-2-(tert-Butoxy)-2-((R)-1-(3-fluoro-5-(trifluoromethyl)benzoyl)-4-(8-fluoro-5-methylchroman-6-yl)-6-methylindolin-5-yl)acetic acid] | 14 nM
COc1cncc(C(=O)N2CCc3c2cc(C)c([C@H](OC(C)(C)C)C(=O)O)c3-c2cc(F)c3c(c2C)CCCO3)c1 [Example 151, (2S)-2-(tert-Butoxy)-2-(4-(8-fluoro-5-methylchroman-6-yl)-1-(5-methoxynicotinoyl)-6-methylindolin-5-yl)acetic acid] | 17 nM
COc1cc(F)cc(C(=O)N2CCc3c2cc(C)c([C@H](OC(C)(C)C)C(=O)O)c3-c2cc(F)c3c(c2C)CCCO3)c1 [Example 158, (S)-2-(tert-Butoxy)-2-((R)-1-(3-fluoro-5-methoxybenzoyl)-4-(8-fluoro-5-methylchroman-6-yl)-6-methylindolin-5-yl) acetic acid] | 3 nM
COc1ccc(C(=O)n2ccc3c(-c4cc(F)c5c(c4C)CCCO5)c([C@H](OC(C)(C)C)C(=O)O)c(C)cc32)cc1C [Example 202, (S)-2-(tert-Butoxy)-2-((R)-4-(8-Fluoro-5-methylchroman-6-yl)-1-(4-methoxy-3-methylbenzoyl)-6-methyl-1H-indol-5-yl)acetic acid] | 93 nM
Cc1ccc(-c2c3c(cc(C)c2C(OC(C)(C)C)C(=O)O)N(CC(=O)c2ccccc2)CCC3)cc1 (stereo not shown) [Example 207, 2-(tert-Butoxy)-2-(7-methyl-1-(2-oxo-2-phenylethyl)-5-(p-tolyl)-1,2,3,4-tetrahydroquinolin-6-yl)acetic acid] | 3500 nM
Cc1ccc(-c2c3c(cc(C)c2C(OC(C)(C)C)C(=O)O)N(C(=O)OCc2ccccc2)CCC3)cc1 (stereo not shown) [Example 208, 2-(1-((Benzyloxy)carbonyl)-7-methyl-5-(p-tolyl)-1,2,3,4-tetrahydroquinolin-6-yl)-2-(tert-butoxy)acetic acid] | 1120 nM
COC(=O)c1cccc(CN2CCCc3c2cc(C)c(C(OC(C)(C)C)C(=O)O)c3-c2ccc(C)cc2)c1 (stereo not shown) [Example 209, 2-(tert-Butoxy)-2-(1-(3-(methoxycarbonyl)benzyl)-7-methyl-5-(p-tolyl)-1,2,3,4-tetrahydroquinolin-6-yl)acetic acid] | 1340 nM
CCCNC(=O)N1CCCc2c1cc(C)c(C(OC(C)(C)C)C(=O)O)c2-c1ccc(C)cc1 (stereo not shown) [Example 210, 2-(tert-Butoxy)-2-(7-methyl-1-(propylcarbamoyl)-5-(p-tolyl)-1,2,3,4-tetrahydroquinolin-6-yl)acetic acid] | 4290 nM
Cc1ccc(-c2c3c(cc(C)c2C(OC(C)(C)C)C(=O)O)N(c2ccccc2)CCC3)cc1 (stereo not shown) [Example 211, 2-(tert-Butoxy)-2-(7-methyl-1-phenyl-5-(p-tolyl)-1,2,3,4-tetrahydroquinolin-6-yl)acetic acid] | 10400 nM
Cc1ccc(-c2c3c(cc(C)c2C(OC(C)(C)C)C(=O)O)N(Cc2ccc(F)c(F)c2)CCC3)cc1 (stereo not shown) [Example 212, 2-(tert-Butoxy)-2-(1-(3,4-difluorobenzyl)-7-methyl-5-(p-tolyl)-1,2,3,4-tetrahydroquinolin-6-yl)acetic acid] | 1030 nM
Cc1ccc(-c2c3c(cc(C)c2C(OC(C)(C)C)C(=O)O)N(S(=O)(=O)N2CCCCC2)CCC3)cc1 (stereo not shown) [Example 213, 2-(tert-Butoxy)-2-(7-methyl-1-(piperidin-1-ylsulfonyl)-5-(p-tolyl)-1,2,3,4-tetrahydroquinolin-6-yl)acetic acid] | 3410 nM
